In assay [1] the test system is TNF-α, IL-6 and IL-1B in exudate. Description: Air pouch model, ELISA of exudate. It counts as in vivo, C57BL/6 mice. The conditions noted are these: 300 μg/mouse into air pouch; FIG. 1. Here is the method:
Healthy adult male C57BL/6 mice weighing between 20 and 30 g were supplied by Nanjing Biomedicial Research Institute of Nanjing University (NBRI). Prior to any experiments being conducted, mice were housed under standardized conditions (at a constant temperature of 22±2° C., with alternating 12 hour periods of light and darkness), and were fed on a standard mouse diet with water, for about a week.
General anesthesia was induced using intraperitoneal 3% chloral hydrate (Sinopharm Chemical Reagent Co., Ltd., Shanghai, China; 1 mL/10 g of body weight). The hair of the entire dorsum was shaved and depilated 1 day before sterile air injection.
Air pouches were produced by subcutaneous injection of sterile air (5 mL) into the intrascapular area of the mice. After three days, another injection of air (3 mL) was performed to maintain the pouches. […]
Exudates were collected and volumes were quantified. The exudates were centrifuged at 3000 rpm for 10 minutes at 4° C., and the supernatants were collected and stored at −20° C. for ELISA analysis using standard ELISA test kits from Beijing 4A Biotech Co., Ltd. (Beijing) and an ELISA reader (SH-1000 Hitachi, Japan) for […] (TNF-α), interleukin 1 beta (IL-1B), interleukin 6 (IL-6). […]
In general terms: ELISA stands for enzyme-linked immunosorbent assay.

The test system of assay [2] is allergic skin (redness, itching, swelling). Description: Liquid spray to treat allergic dermatitis. Format: in vivo, human. Here is the method: Compound B (see Example 1 above) was dissolved in Water for Injection (WFI; prepared from a TC-RO-0.25/h-2 Water Treatment System, Yangzhou Tiancheng Water Treatment Devices & Engineering Co., Ltd., Yangzhou, China). The concentration was 0.3 mg/mL.
The enrolled subjects in the study had allergic skin. Prior to treatment, the patients presented symptoms including skin redness, itching and swelling. Subjects were required to use the liquid spray in the morning and the evening after facial cleansing.

Assay [3] concerns bleomycin-induced pulmonary fibrosis. Put plainly: Idiopathic pulmonary fibrosis (IPF) model. It counts as in vivo, Sprague Dawley rats. Further details: lung coefficient: unit not given here. Here is the method: Experimental animals and grouping: 40 adult male Sprague Dawley rats, after 7 days of adaptive feeding, were divided into 4 groups: sham-operation group (Sham), IPF model group (no treatment; Model), test group (Compound B) and positive control group (Positive Control).
The test were administered Compound B, at a dose of 130 μg/rat, which was introduced by aerosolized inhalation. Oral administration of pirfenidone (Etuary®, Beijing Continent Pharmaceutical Co., Ltd., Beijing, China) as a 120 mg/kg single-bolus dose served as the positive control.
A pulmonary fibrosis model was established by intratracheal instillation of bleomycin. The rats were anaesthetised and placed on an operating table in the supine position, to expose the trachea. Bleomycin (5 mg/kg) saline solution was injected into the trachea through the gap between the tracheal cartilage rings. The sham-operation group were given an equal volume of normal saline. Shortly after administration, the rats were lifted vertically and were rotated, in order to evenly disperse the drug. Once the rats had recovered, after approximately 5 days, they were administrated the different drugs according to the plan for 28 days, consecutively.
The exhaust volume of the atomizing device was 0.15 mL per minute. The inhalation time for each rat was 1 minute.
At Day 29 following drug administration, rats were anesthetized by i.p. injection of chloral hydrate. After orbital blood collection, the rats were sacrificed. The thoracic cavity was quickly opened and the lung was collected for further analysis. The lung wet weight was measured, and the lung coefficient was calculated (lung wet weight/rat weight×1000). The tissue was stored in refrigerator at −80° C. for further use.
A piece of lung tissue was accurately weighed, and 9 times the weight of saline was added. Then, the tissue was homogenized and centrifuged for 10 minutes at 3000 rpm. The homogenate was used to detect the expression of the transformation growth factor (TGF-β1), tumor necrosis factor-α (TNF-α) and alpha-smooth muscle actin (α-SMA). Standard ELISA methods were used for the detection. The contents of malonaldehyde (MDA) and the activity of superoxide dismutase (SOD) in lung tissue were also detected.

For a further assay, the system named is ammonia induced cough. Description: Antitussive experiment, ammonia induced cough method. It counts as in vivo, ICR mice. As for the experimental part: 36 ICR mice were randomly divided into 3 groups according to their body weight, labelled a CMC-Na (Negative) control group, a dextromethorphan hydrobromide (Positive) control group and a Compound B (B) group. Each group contained 12 mice, with 6 males and 6 females in each.
Compound B was administered via atomization inhalation using a YLS-8A Multifunctional cough and sputum inducing device (Jinan Yiyan Science and Technology Co., Ltd.) (0.15 ml/min) for 1 minute, once daily for 5 days. And the positive control drug was administered once daily by intragastric administration at 10 mg/kg for 5 days.
The mice were placed in an inverted beaker 1, 2, and 4 hours after the last drug administration. 1 mL of aqueous ammonia (25.0 to 28.0%) was placed on top of a boiling water bath and was evaporated into the beaker.
The time for mice to receive ammonia exposure was determined by a method characterized by analyzing data immediately after one test or a batch of tests. The results of the previous analysis determined how to conduct the next test or batch of tests.
The difference between the logarithmic value of two adjacent time periods was 0.1.
The number of coughs within 1 minute was detected using a stethoscope. If a mouse coughed three or more times over one minute, this was labelled as called ‘cough’, and less than three times in one minute was labelled ‘cough free’.
The EDT50 was defined as the ammonia stimulating time at which half mice developed a “cough”, calculated by the equation: […]
(c equals the sum of r and x, r is the number of animals in each stimulating time group, x is the logarithm of stimulation time and n was the number of animals in each group). lg is a base 10 logarithmic value.
In Table 15, R is the EDT50 in treatment group divided by the EDT50 in the Control group expressed as a percentage.

The mark [4] stands for this setting: lung tissue homogenate, Day 29, Compound B 130 μg/rat aerosolized inhalation, pirfenidone gavage, 28 days.

Where a SMILES comes first, the peptide text is derived from it. [ ]: non-standard residue; d: D form. Hyp = O=C(O)[CH]1C[CH](O)CN1

For the compound `CC(N)C(=O)NC(CCCCN)C(=O)N1CCCC1C(=O)NC(CO)C(=O)NC(Cc1ccc(O)cc1)C(=O)N1CC(O)CC1C(=O)N1CC(O)CC1C(=O)NC(C(=O)NC(Cc1ccc(O)cc1)C(=O)NC(CCCCN)C(=O)O)C(C)O` (stereo not drawn) [Compound B, Ala-Lys-Pro-Ser-Tyr-Hyp-Hyp-Thr-Tyr-Lys] (H-AKPSY[Hyp][Hyp]TYK-OH; configuration not given here), the “ELISA test results of the exudate for TNF-α, IL-6 and IL-1B” value in assay [1] was “very strong anti-inflammatory effects”. For the same compound, in assay [2] (liquid spray 0.3 mg/mL in Water for Injection, first use, subjects with allergic skin), the “time to relief of itching” value is no more than 8 min. Further, the “capillary congestion, facial redness and swelling” value in assay [2] (liquid spray 0.3 mg/mL, morning and evening, after 1 day of use) was “no longer red and swollen after 1 day of use”. For the same compound, in assay [3] (compared with pirfenidone), the “inhibition of production of TNF-α, α-SMA and TGF-β1 in lung tissue” value is “almost equivalent to that of the known IPF drug, pirfenidone”. Besides, the TGF-β1 in assay [3] (setting [4]) was 0.40 ± 0.02 ng/mg protein. For the same compound, in assay [3] (setting [4]), the TNF-α was 187.91 ± 12.20 pg/mg protein. This compound gave a α-SMA in assay [3] (setting [4]) of 10.85 ± 1.42 pg/mg protein. This compound also returned an MDA in assay [3] (lung tissue, Day 29) of 0.17 ± 0.04 U/mg protein. The compound also showed an SOD in assay [3] (lung tissue, Day 29) of 48.64 ± 1.85 U/mg protein. Besides, the lung coefficient in assay [3] (lung wet weight/rat weight×1000, Day 29) is listed as 5.14 ± 0.37. Moreover, the R was 131.7% in the assay on ammonia induced cough (1 hour after admin., EDT50 in treatment group divided by EDT50 in Control group); 131.8% with ammonia induced cough (2 hours after admin., EDT50 treatment/Control); 100 [???] % with ammonia induced cough (4 hours after admin., EDT50 treatment/Control). For the same compound, the EDT50 came out at 28.2 s in the assay with ammonia induced cough (1 hour after last administration, B 195 μg/mouse atomization inhalation, Positive 10 mg/kg intragastric, once daily 5 days); 28.2 s in the assay with ammonia induced cough (2 hours after last administration); 26.9 s with ammonia induced cough (4 hours after last administration). In the assay with ammonia induced cough (at 1 and 2 hours), the “effect on cough relief” value is “positive effect on cough relief”.
